{"source": "patent EP3636781A1", "about": "“NOVEL SCREENING ASSAYS FOR IDENTIFYING COMPOUNDS RESERSING HIV-1 LATENCY” (Heinrich-Pette-Institut Leibniz-Institut für Experimentelle …, priority 2018, dated 2020)", "key": {"J89": {"tested_on": "J89", "assay": "SM111 treatment of latent J89 cells, latency reversal as HIV-1-GFP+ cells", "format": "cell-based", "settings": "100 µM, several consecutive passages, HIV-1-GFP+ cells by flow cytometry (Figure 7A)", "experimental": "All results were depicted as medians ± IQR. […].\nFor SM111 treatment, the HIV-1 latent Jurkat cell line, J89, was treated with SM111 compound, a Vpu-inhibitor, SM113, a negative compound, and DMSO for several consecutive passages. 1x10^6 cells were plated and treated with 100 µM of all compounds for 4 days. Then, one fourth (25%) of the cells were passaged into new media containing the respective treatment and the rest were used to measure HIV-1 latency reactivation (GFP) and cell viability. An untreated control well was kept as internal negative control."}, "J89Δvpu cells [1]": {"tested_on": "J89Δvpu cells", "settings": "96 hrs, proportion of Zombie NIR-/activated Caspase 3- cells against concentration", "procedure": "(§1) Latency reactivation was traced by quantifying the proportion of HIV-1-GFP+ cells. […] The treatment of J89Δvpu cells with increasing concentrations of sulfasalazine was measured at 96 hrs. Cells shown are gated on viable cells (Zombie NIR- gate) and on negative activated caspase 3 to exclude any apoptotic or dead cell. […] (B) NF-κB inhibitor, sulfasalazine, was added at several concentrations to the J89Cas9AVpu cell line and the proportion of GFP- cells (latent) was measured by flow cytometry at 96 hrs. (gating strategy: (A): FSC/SSC → Zombie NIR- → HIV-1-GFP. (B) FSC/SSC → Zombie NIR negative → Caspase 3 active negative → HIV-1-GFP)."}, "J89Δvpu cells [2]": {"tested_on": "J89Δvpu cells", "assay": "cells", "settings": "96 h, read-out: EC50 for HIV-1 latency re-establishment", "procedure": "as §1"}, "NF-κB (human)": {"target": "NF-κB (human) (UniProt Q04206)", "sequence (Q04206 whole entry)": "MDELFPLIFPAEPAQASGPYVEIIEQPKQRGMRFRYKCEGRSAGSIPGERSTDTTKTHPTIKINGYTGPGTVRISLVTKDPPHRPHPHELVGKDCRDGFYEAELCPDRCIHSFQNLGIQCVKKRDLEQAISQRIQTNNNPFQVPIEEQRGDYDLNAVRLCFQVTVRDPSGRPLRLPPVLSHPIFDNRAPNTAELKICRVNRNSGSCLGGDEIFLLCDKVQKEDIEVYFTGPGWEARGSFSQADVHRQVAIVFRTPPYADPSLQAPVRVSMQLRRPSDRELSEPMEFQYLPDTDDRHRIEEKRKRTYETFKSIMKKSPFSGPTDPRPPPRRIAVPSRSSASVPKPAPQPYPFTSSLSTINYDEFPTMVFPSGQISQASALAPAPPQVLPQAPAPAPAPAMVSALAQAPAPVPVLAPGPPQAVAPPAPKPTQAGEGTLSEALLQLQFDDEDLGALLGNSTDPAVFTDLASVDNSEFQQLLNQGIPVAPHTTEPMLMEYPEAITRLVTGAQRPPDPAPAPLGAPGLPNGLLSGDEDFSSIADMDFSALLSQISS", "assay": "cell-based or functional assay"}}, "data": [{"compound": "N=C(N)NC(=O)c1cccnc1N1CCCCCC1", "note": "[SM111, 1-(2-(azepan-1-yl)nicotinoyl)guanidine]", "values": [{"measurement": "reversal of HIV-1 latency", "setting": "J89", "value": "able to reverse HIV-1 latency"}]}, {"compound": "O=C(O)c1cc(/N=N/c2ccc(S(=O)(=O)Nc3ccccn3)cc2)ccc1O", "note": "[sulfasalazine]", "values": [{"measurement": "LD50", "setting": "J89Δvpu cells [1]", "value": "> 0.50", "unit": "mM"}, {"measurement": "EC50", "setting": "J89Δvpu cells [2]", "value": 400, "unit": "µM"}]}, {"compound": "HIV-1 89.6 Vpu R45K mutant", "values": [{"measurement": "activation of NF-κB in a dual luciferase reporter assay (HEK293T, constitutively active IKKβ, increasing amounts of Vpu expression plasmid), EC50", "setting": "NF-κB (human)", "value": "> 38", "unit": "ng"}]}, {"compound": "HIV-1 Vpu protein (strain 89.6), wild type", "values": [{"measurement": "activation of NF-κB in a dual luciferase reporter assay (HEK293T, constitutively active IKKβ, increasing amounts of Vpu expression plasmid), EC50", "setting": "NF-κB (human)", "value": 5.2, "unit": "ng"}]}]}
